Laboratory results reported in patent US4268630A, “Microbiological production of ketones from C3 -C6 alkanes” (priority 1979, dated 1981).
“Also recorded” adds a separate entry of the source. Like-named read-outs stand apart in the source and are kept apart here.

Assays:
[1] = tested on: secondary alcohol dehydrogenase; test: Activity of purified yeast-derived secondary alcohol dehydrogenase; assay type: biochemical, Pichia sp. NRRL Y-11,328; conditions: for inhibition of secondary alcohol dehydrogenase activity (in words): primary alcohols tested at 10^-3 M
[2] = tested on: cell-free particulate fraction of methane-grown methylotrophs; test: Conversion of n-alkanes to sec. alcohols by cell-free particulate fractions: inhibitors and electron donors; assay type: biochemical
Excerpt: The conditions for preparing the cell suspensions or the cell-free particulate fractions from methane-grown methylotroph microorganisms is the same as described above.

[3] = tested on: secondary alcohol dehydrogenase (SADH); test: Activity of purified secondary alcohol dehydrogenase (inhibition, substrate specificity, Km); assay type: biochemical, Pseudomonas sp. ATCC 21439; conditions: for % inhibition of SADH activity: each inhibitor at a final concentration of 1 mM, spectrofluorometric; for relative percent rate of oxidation: 2-butanol = 100%
Method: Secondary alcohol dehydrogenase (SADH) from an obligate methanol utilizer, Pseudomonas sp. ATCC 21439 was purified as follows. […] 0.05 M sodium phosphate buffer, pH 7.0 with 0.5 mM dithiothretol (buffer A) and were disrupted sonically (5×1 min.). The crude extract was separated by centrifugation. The crude extract was heat-treated at 50° C. in a water bath for 10 minutes. The resulting precipitate was removed by centrifugation. To the supernatant solution, 25 ml of protamine sulfate solution (2% solution in 0.1 M Tris base) was added dropwise with continuous stirring. After standing for 30 minutes, the extract was centrifuged. The supernatant solution was fractionated with solid ammonium sulfate. The material precipitating between 30 and 60% saturation was collected and was dialized overnight against buffer A. The The dialized material was applied to a DEAE-cellulose column (3 cm by 35 cm) that had been equilibrated with buffer A. The secondary alcohol dehydrogenase activity was eluted in the void volume. This DEAE-cellulose eluate was concentrated by ammonium sulfate fractionation. Material precipitating between 30 and 50% ammonium sulfate saturation was collected by centrifugation and dialyzed overnight against A. This fraction was further washed and filtered through an Amicon unit with XM 50 membrane. The concentrated fraction (6 ml) inside the Amicon unit was applied to an Affi-Gel Blue column (0.8 cm×18 cm) which had been equilibrated with buffer A for affinity chromatography. The column was washed overnight with buffer A (0.18 ml./min.) and then was eluted with buffer A containing 5 mM NAD. Each 1 ml. fraction was collected.
The purified secondary alcohol dehydrogenase enzyme (SADH) may be used directly for converting C3 -C6 secondary alcohols to the corresponding methyl ketones by the procedures described above; however, a source of NAD^+ must be added to the reaction medium. One can determine the NAD-linked secondary alcohol dehydrogenase activity with a fluorescence spectrophotometer (Perkin Elmer, Model MPF 44A) by following the formation of reduced NAD (Ex 340 nm, Em 460 nm). The assay system (3 ml.) will typically contain: sodium phosphate buffer pH 7.0, 150 μmol; NAD 1.0 μmol; a given amount of enzyme preparation; and 20 μmol secondary alcohol. The reaction is started by the addition of secondary alcohol. One unit of SADH enzyme activity represents the reduction of one nmole NAD per minute.
The effect of metal-chelating agents and thioreagents on the activity of the purified SADH enzyme were studied. […] The possibility of ethanol or n-propanol as an inhibitor was studied.

[4] = tested on: cell suspensions of C1-utilizers; test: Production of 2-butanone from 2-butanol / sec-alcohol oxidation by cell suspensions of the strains tested; assay type: cell-based; conditions: for inhibition of production of 2-butanone from 2-butanol (in words): cell suspensions of the strains tested
Excerpt: The substrate specificity for the oxidation of C3 -C6 secondary alcohols by the strains of C1 -utilizers was studied.

[5] = tested on: Methylosinus trichosporium OB3b NRRL B-11,196; test: Conversion of n-alkanes to oxidation products by cell suspensions; assay type: cell-based; conditions: methane-grown cell suspension, pH 7.0
Method: (§1) ^(a) Cell-suspensions of methanegrown methylotroph microorganisms
(§2) indicated in 0.15 M phosphate buffer, pH 7.0 incubated in the alkanes as
(§3) indicated at 3° C. The oxidation products were determined by g.l.c

[6] = tested on: Methylococcus capsulatus CRL M1 NRRL B-11,219; test: as above; assay type: cell-based; conditions: methane-grown cell suspension, pH 7.0
Method: as §1, §2, §3

CCCCCCC(C)O (centres unmarked) [2-octanol]
substrate specificity of purified yeast secondary alcohol dehydrogenase (in words) ([1]; spectrophotometric): not oxidized

CCCCCO [pentan-1-ol]
substrate specificity of purified yeast secondary alcohol dehydrogenase (in words) ([1]; spectrophotometric): not oxidized

Oc1cccc2cccnc12 [8-hydroxyquinoline]
inhibition of conversion of n-alkanes to sec. alcohols (in words) [2]: inhibited

[Cu+2] [cupric, reference compound]
% inhibition of SADH activity [3]: 25%

CCCCCC(C)O (centres unmarked) [2-heptanol]
substrate specificity: rate of oxidation of secondary alcohols (in words) ([4]; cell suspensions of C1-utilizers): oxidized at a much slower rate
substrate specificity of purified yeast secondary alcohol dehydrogenase (in words) ([1]; spectrophotometric): not oxidized

C=O [formaldehyde]
substrate specificity of purified SADH (in words) [3]: not oxidized

O=C(O)c1cc[c]([Hg+])cc1.[OH-] [p-hydroxymercuribenzoate, reference compound]
% inhibition of SADH activity [3]: 100%
inhibition of secondary alcohol dehydrogenase activity (in words) [1]: strongly inhibited

CC(O)C(C)O (centres unmarked) [butane 2,3-diol]
substrate specificity of purified SADH (in words) [3]: lower rate
relative percent rate of oxidation [3]: 2.5%

O=[N+]([O-])[O-].[Ag+] [silver nitrate, reference compound]
inhibition of secondary alcohol dehydrogenase activity (in words) [1]: inhibited

CCCCO [butan-1-ol]
substrate specificity of purified yeast secondary alcohol dehydrogenase (in words) [1]: not oxidized

CO [methanol]
substrate specificity of purified yeast secondary alcohol dehydrogenase (in words) ([1]; spectrophotometric): not oxidized

CC(O)CCO (centres unmarked) [butane 1,3-diol]
substrate specificity of purified SADH (in words) [3]: lower rate
relative percent rate of oxidation [3]: 2%
substrate specificity of purified yeast secondary alcohol dehydrogenase (in words) ([1]; spectrophotometric): not oxidized

CCCO [propanol]
substrate specificity of purified SADH (in words) [3]: lower rate
relative percent rate of oxidation [3]: 2%

CCC(C)=O [2-Butanone, 2-butanone]
product inhibition of 2-butanone production ([4]; exogenously supplied 2-butanone (8 μmoles) with viable cell suspensions): No product (2-butanone) inhibition; also recorded: did not inhibit
inhibition of SADH activity (in words) ([3]; purified SADH): inhibited

CC=O [acetaldehyde]
substrate specificity of purified SADH (in words) [3]: lower rate
relative percent rate of oxidation [3]: 4%

O=S(=O)([O-])[O-].[Cu+2] [cupric sulfate, reference compound]
inhibition of secondary alcohol dehydrogenase activity (in words) [1]: inhibited

CCO [ethanol]
inhibition of SADH activity (in words) [3]: did not inhibit
substrate specificity of purified yeast secondary alcohol dehydrogenase (in words) [1]: not oxidized

NC(=O)C1=CN([C@@H]2O[C@H](COP(=O)(O)OP(=O)(O)OC[C@H]3O[C@@H](n4cnc5c(N)ncnc54)[C@H](O)[C@@H]3O)[C@@H](O)[C@H]2O)C=CC1 [NADH, reduced nicotinamide adenine dinucleotide]
use as electron donor for hydroxylation of n-alkanes [2]: requires

CCC(O)CO (centres unmarked) [butane 1,2-diol]
substrate specificity of purified SADH (in words) [3]: not oxidized
substrate specificity of purified yeast secondary alcohol dehydrogenase (in words) ([1]; spectrophotometric): not oxidized

O=C(O)c1cc(SSc2ccc([N+](=O)[O-])c(C(=O)O)c2)ccc1[N+](=O)[O-] [5,5'-dithiobis(2-nitrobenzoic acid), reference compound]
% inhibition of SADH activity [3]: 100%
inhibition of SADH activity (in words) ([3]; purified SADH): inhibited

NNC(N)=S [thiosemicarbazide]
inhibition of conversion of n-alkanes to sec. alcohols (in words) [2]: inhibited

[N-]=[N+]=[N-] [Sodium azide, reference compound]
% inhibition of SADH activity [3]: 10%

cytochrome c [reference compound]
ability to act as electron acceptor/carrier ([1]; purified enzyme): could not act as electron carrier

[Co+2] [Co^++, reference compound]
% inhibition of SADH activity [3]: 0%

c1ccc(-c2ccccn2)nc1 [α,α-bipyridyl, reference compound]
inhibition of production of 2-butanone from 2-butanol (in words) [4]: inhibited
% inhibition of SADH activity [3]: 70%
inhibition of conversion of n-alkanes to sec. alcohols (in words) [2]: inhibited

[Ni+2] [nickel, reference compound]
% inhibition of SADH activity [3]: 20%

N#C[S][Hg][S]C#N [mercuric thiocyanate, reference compound]
inhibition of secondary alcohol dehydrogenase activity (in words) [1]: inhibited

O=C(O)CI [iodoacetic acid, reference compound]
inhibition of SADH activity (in words) [3]: not inhibited

C=CC [propylene]
inhibition of conversion of n-alkanes to sec. alcohols (in words) [2]: inhibited
inhibition of conversion of n-alkanes to sec. alcohols (in words) ([2]; listed as Propylene): inhibit

C [Methane]
Conversion Rate to product Methanol ([5]; […] phosphate buffer): 1.5 μmoles/hr./mg./protein
Conversion Rate to product Methanol [6]: 2.5 μmoles/hr./mg./protein

NC(N)=S [Thiourea, reference compound]
inhibition of production of 2-butanone from 2-butanol (in words) [4]: not inhibited
% inhibition of SADH activity [3]: 0%
inhibition of SADH activity (in words) ([3]; purified SADH): not inhibited
inhibition of conversion of n-alkanes to sec. alcohols (in words) [2]: inhibited

[Fe+2] [ferrous, reference compound]
% inhibition of SADH activity [3]: 50%

CC(C)CO [isobutanol]
substrate specificity of purified SADH (in words) [3]: not oxidized

NC(=O)C1=CN([C@@H]2O[C@H](COP(=O)(O)OP(=O)(O)OC[C@H]3O[C@@H](n4cnc5c(N)ncnc54)[C@H](OP(=O)(O)O)[C@@H]3O)[C@@H](O)[C@H]2O)C=CC1 [NADPH, reduced nicotinamide adenine dinucleotide phosphate]
use as electron donor for hydroxylation of n-alkanes [2]: could also be utilized as an electron donor

CCCO [n-propanol]
inhibition of SADH activity (in words) [3]: did not inhibit
substrate specificity of purified yeast secondary alcohol dehydrogenase (in words) [1]: not oxidized

[Mn+2] [Mn^++, reference compound]
% inhibition of SADH activity [3]: 0%

c1cnc2c(c1)ccc1cccnc12 [1,10-phenanthroline, reference compound]
inhibition of production of 2-butanone from 2-butanol (in words) [4]: inhibited
% inhibition of SADH activity [3]: 95%
inhibition of secondary alcohol dehydrogenase activity (in words) [1]: strongly inhibited
inhibition of conversion of n-alkanes to sec. alcohols (in words) [2]: inhibited

O=Cc1ccccc1 [benzaldehyde]
substrate specificity of purified SADH (in words) [3]: not oxidized

OC1CCCCC1 [cyclohexanol]
substrate specificity of purified SADH (in words) [3]: lower rate
relative percent rate of oxidation [3]: 4%

CCN1C(=O)C=CC1=O [N-ethylmalemide, N-ethylmaleimide, reference compound]
% inhibition of SADH activity [3]: 6%
inhibition of SADH activity (in words) ([3]; purified SADH): not inhibited

CC(O)CO (centres unmarked) [1,2-propandiol]
substrate specificity of purified yeast secondary alcohol dehydrogenase (in words) ([1]; spectrophotometric): not oxidized

[Fe+3] [ferric, reference compound]
% inhibition of SADH activity [3]: 35%

[Zn+2] [Zn^++, reference compound]
stimulation of SADH activity by exogenous zinc [3]: did not stimulate
% inhibition of SADH activity [3]: 0%

CC [Ethane]
Conversion Rate to product Ethanol [5]: 1.3 μmoles/hr./mg./protein
Conversion Rate to product Ethanol [6]: 2.0 μmoles/hr./mg./protein

[Mg+2] [Mg^++, reference compound]
% inhibition of SADH activity [3]: 0%

O=C(O)CCC(=O)O [succinic acid]
substrate specificity of purified SADH (in words) [3]: not oxidized

c1c[nH]cn1 [imidiazole, reference compound]
inhibition of secondary alcohol dehydrogenase activity (in words) [1]: strongly inhibited

Oc1ccccc1 [phenol]
substrate specificity of purified SADH (in words) [3]: not oxidized
